Experimental data as given in article PMC7614683, “A small molecule PI3Kα activator for cardioprotection and neuroregeneration” (Nature, 2023).
Read-outs that look alike come from different tables or passages of the source.

Columns and labels:
Experiment in all cases: SelectScreen Z-LYTE kinase activity assay (SI Table 6)
Format in all cases: biochemical
[1] = molecular target: protein kinases of the Z-LYTE panel (Homo sapiens, UniProt Q16288)
Method: (§1) 133 protein kinases and 7 lipid kinases were counterscreened, with 1938 used at 1 μM, using the Adapta, Lantha and Z-LYTE assays (SelectScreen Kinase Profiling Service; Thermofisher – experimental details of these assays can be found here: https://www.thermofisher.com/uk/en/home/industrial/pharma-biopharma/drug-discovery-development/target-and-lead-identification-and-validation/kinasebiology/kinase-activity-assays.html. The tree represention in KinMap[59] generated courtesy of Cell Signaling Technology, Inc. (www.cellsignal.com). mTORC1 (mTOR/RAPTOR/LST8) protein complex and ATM kinase and substrates were produced as previously described[57],[60]. Screening of 1938 was conducted using SuperSep Phos-Tag 50 μmol/l 100 x 100 x 6.6 mm 17-well (192-18001/199-18011) gels. For ATM assays, 100 nM ATM was incubated for 30 min at 30°C with 5 μM GST-p53 and 1 mM ATP, in the absence or presence of 200 μM 1938 in ATM Kinase Buffer (50 mM HEPES pH 7.5, 100 mM NaCl, 10% glycerol, 2 mM […], 5 mM MgCl2). As a positive control for ATM activation, the same reaction was carried out with 100 nM ATM/5 μM GST-p53/1 mM ATP in the presence of 100 nM Mre11-Rad50-Nbs1 (MRN) complex, a known activator of ATM[61]. For mTORC1 assays, 50 nM mTORC1 complex (mTOR/LST8/RAPTOR) was incubated for 3 h at 30°C with 15 μM 4E-BP1, 10 mM MgCl2 and 250 μM ATP, in the absence or presence of 200 μM 1938. As a ‘positive’ control, a higher concentration (150 nM) of mTORC1 complex (mTOR/LST8/RAPTOR) was incubated for 3 h at 30°C with 15 μM 4E-BP1, 10 mM MgCl2 and 250 μM ATP. Kinase reactions were quenched by addition of SDS-PAGE Loading Buffer (as per manufacturer’s instructions) and freezing at -20°C before being run on the Phos-tag gels at 150 V for 90 min. Gels were then stained using InstantBlue™ Coomassie, and quantified using BioRad Image Lab Software. Kinase assays were carried out in triplicate.

[2] = molecular target: protein kinases of the Z-LYTE panel (Homo sapiens, UniProt P49761)
protein kinases of the Z-LYTE panel (Homo sapiens, UniProt P49761), sequence (P49761 whole entry): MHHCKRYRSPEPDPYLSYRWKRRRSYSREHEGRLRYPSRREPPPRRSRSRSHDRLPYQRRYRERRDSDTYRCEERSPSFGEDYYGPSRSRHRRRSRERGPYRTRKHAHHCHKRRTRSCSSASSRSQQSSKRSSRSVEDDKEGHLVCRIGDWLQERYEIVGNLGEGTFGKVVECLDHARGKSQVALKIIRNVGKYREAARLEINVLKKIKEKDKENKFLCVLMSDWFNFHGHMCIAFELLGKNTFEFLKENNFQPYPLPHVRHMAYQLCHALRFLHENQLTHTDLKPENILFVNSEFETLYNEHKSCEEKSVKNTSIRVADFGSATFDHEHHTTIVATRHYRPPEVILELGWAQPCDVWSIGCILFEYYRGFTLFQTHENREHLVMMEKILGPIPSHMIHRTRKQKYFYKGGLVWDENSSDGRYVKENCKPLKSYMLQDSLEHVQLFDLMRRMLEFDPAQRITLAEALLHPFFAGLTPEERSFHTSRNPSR
Method: as §1

[3] = molecular target: T1, protein kinases of the Z-LYTE panel (Homo sapiens, UniProt Q9UHD2)
T1 sequence (Q9UHD2 1-729): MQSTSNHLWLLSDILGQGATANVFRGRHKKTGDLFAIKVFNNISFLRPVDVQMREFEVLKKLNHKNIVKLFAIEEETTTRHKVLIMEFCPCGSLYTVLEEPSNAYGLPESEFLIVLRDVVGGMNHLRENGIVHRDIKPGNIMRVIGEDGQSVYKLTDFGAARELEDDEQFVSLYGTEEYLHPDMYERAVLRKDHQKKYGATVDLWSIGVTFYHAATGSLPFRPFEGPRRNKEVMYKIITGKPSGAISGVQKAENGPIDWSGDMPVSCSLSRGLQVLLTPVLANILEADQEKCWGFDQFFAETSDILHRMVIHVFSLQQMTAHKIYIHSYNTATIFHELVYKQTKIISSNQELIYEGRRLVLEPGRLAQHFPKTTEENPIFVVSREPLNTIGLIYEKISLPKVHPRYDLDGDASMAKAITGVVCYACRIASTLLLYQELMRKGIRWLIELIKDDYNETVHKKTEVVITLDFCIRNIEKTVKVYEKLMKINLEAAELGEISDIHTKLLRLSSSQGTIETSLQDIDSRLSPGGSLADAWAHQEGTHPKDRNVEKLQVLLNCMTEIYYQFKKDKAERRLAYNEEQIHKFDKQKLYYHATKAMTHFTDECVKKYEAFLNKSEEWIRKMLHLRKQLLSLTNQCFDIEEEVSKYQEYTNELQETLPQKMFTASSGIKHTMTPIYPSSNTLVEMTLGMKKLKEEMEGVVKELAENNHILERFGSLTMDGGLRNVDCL
Method: as §1

[4] = molecular target: protein kinases of the Z-LYTE panel (Homo sapiens, UniProt P54646)
protein kinases of the Z-LYTE panel (Homo sapiens, UniProt P54646), sequence (P54646 whole entry): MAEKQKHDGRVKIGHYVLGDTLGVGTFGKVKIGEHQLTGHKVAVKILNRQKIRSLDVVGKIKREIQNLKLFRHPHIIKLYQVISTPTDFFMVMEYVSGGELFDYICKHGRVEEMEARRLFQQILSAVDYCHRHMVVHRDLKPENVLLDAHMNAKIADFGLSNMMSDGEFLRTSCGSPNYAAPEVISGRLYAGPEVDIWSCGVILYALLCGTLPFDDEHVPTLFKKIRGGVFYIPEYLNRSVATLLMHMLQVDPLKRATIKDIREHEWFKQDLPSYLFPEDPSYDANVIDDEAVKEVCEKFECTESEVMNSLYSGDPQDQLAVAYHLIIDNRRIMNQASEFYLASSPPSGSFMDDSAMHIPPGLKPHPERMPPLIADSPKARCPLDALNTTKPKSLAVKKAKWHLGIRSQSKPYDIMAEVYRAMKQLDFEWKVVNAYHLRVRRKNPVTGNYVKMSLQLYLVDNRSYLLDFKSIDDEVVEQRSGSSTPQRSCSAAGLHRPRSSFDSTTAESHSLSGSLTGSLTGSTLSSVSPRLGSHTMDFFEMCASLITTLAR
Method: as §1

[5] = molecular target: T2, protein kinases of the Z-LYTE panel (Homo sapiens, UniProt O00418)
T2 sequence (O00418 1-725): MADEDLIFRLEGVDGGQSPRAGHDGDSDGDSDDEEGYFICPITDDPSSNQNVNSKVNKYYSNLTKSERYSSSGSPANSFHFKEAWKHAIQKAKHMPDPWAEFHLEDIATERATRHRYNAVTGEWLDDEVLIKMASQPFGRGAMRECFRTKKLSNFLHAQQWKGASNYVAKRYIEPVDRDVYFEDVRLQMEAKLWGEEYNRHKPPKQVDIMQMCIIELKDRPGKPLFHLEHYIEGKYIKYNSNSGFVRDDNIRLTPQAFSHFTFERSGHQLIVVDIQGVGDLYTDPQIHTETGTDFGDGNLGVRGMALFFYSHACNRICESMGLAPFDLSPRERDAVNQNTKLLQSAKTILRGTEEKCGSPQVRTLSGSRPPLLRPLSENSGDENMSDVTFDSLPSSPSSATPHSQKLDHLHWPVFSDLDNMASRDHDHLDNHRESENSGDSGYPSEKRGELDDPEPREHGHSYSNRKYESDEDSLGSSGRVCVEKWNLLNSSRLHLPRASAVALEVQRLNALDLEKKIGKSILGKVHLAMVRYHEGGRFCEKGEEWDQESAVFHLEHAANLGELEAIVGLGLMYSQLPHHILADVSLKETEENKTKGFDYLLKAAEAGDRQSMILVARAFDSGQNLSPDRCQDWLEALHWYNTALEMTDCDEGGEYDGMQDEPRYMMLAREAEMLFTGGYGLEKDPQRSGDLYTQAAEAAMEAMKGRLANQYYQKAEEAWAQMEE
Method: as §1

[6] = molecular target: protein kinases of the Z-LYTE panel (Homo sapiens, UniProt O60674)
protein kinases of the Z-LYTE panel (Homo sapiens, UniProt O60674), sequence (O60674 whole entry): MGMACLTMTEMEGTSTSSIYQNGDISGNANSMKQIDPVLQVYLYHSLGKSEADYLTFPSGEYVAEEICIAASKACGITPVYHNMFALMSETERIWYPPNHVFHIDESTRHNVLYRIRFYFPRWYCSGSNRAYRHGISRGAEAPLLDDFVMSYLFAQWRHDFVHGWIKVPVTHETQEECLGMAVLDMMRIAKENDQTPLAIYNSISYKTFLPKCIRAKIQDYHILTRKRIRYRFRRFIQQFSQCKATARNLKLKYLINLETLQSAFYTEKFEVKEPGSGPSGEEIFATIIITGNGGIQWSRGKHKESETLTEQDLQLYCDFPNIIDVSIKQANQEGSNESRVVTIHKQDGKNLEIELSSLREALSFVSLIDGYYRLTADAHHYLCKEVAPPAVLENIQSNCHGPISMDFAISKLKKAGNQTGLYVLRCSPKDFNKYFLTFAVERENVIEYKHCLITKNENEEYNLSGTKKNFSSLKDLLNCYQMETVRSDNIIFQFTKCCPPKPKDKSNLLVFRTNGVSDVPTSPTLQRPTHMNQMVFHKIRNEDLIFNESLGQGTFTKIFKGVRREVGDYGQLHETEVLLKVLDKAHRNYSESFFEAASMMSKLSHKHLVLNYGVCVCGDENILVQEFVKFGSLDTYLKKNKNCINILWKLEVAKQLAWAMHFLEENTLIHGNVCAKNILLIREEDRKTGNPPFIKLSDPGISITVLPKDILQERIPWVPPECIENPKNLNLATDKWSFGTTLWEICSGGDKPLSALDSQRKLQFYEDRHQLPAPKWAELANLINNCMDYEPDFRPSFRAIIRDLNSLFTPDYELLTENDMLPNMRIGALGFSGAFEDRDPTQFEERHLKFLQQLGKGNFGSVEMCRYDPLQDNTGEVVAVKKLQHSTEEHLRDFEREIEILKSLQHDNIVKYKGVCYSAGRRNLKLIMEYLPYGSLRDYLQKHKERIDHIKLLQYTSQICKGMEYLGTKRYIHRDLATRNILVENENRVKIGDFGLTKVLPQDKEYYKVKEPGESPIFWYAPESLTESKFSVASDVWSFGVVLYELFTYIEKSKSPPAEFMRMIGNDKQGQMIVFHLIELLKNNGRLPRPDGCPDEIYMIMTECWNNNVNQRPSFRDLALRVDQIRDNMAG
Method: as §1

[7] = molecular target: protein kinases of the Z-LYTE panel (Homo sapiens, UniProt P21802)
protein kinases of the Z-LYTE panel (Homo sapiens, UniProt P21802), sequence (P21802 22-821): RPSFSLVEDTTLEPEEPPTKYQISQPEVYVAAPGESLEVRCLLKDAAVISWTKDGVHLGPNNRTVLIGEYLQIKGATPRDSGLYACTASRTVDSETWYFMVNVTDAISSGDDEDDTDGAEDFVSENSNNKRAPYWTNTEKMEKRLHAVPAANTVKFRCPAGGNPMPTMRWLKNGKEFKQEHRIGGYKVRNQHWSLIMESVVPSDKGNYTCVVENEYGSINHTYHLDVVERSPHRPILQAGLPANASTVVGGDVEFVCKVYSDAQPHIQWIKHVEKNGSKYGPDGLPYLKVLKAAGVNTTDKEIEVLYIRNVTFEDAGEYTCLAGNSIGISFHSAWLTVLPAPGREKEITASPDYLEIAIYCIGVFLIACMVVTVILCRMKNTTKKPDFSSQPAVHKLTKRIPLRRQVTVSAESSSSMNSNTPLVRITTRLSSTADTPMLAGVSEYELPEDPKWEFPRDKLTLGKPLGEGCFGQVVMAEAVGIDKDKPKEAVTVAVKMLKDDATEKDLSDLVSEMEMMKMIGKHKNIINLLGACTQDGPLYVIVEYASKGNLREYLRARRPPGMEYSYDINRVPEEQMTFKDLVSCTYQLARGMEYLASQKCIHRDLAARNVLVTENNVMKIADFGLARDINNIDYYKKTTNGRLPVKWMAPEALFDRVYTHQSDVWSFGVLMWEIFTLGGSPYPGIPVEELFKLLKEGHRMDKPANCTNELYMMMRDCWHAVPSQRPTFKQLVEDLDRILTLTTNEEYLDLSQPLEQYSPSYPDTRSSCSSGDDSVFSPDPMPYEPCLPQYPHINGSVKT
Method: as §1

protein kinases of the Z-LYTE panel (Homo sapiens, UniProt Q16288), sequence (Q16288 32-839): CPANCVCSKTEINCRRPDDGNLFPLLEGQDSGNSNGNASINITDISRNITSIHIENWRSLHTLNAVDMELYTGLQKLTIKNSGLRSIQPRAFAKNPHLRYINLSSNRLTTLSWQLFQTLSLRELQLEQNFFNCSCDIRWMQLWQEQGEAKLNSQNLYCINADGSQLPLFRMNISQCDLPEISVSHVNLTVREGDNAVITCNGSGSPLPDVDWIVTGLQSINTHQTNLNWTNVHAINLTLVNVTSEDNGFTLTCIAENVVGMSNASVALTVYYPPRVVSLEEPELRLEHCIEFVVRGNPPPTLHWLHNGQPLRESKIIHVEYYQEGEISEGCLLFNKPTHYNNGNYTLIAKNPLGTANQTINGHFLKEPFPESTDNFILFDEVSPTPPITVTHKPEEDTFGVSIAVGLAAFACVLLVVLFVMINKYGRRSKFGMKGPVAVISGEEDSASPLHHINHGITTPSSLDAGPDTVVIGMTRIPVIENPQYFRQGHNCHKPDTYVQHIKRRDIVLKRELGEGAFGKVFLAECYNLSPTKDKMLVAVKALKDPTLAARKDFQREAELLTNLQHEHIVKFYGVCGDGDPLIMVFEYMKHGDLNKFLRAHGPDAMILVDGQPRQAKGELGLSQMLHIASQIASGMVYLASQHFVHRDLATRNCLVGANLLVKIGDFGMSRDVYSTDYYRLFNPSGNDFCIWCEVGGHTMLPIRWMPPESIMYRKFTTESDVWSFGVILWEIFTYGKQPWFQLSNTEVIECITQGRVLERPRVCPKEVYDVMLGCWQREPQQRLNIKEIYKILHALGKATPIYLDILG

Work on `CCN1CCN(c2ccc(Nc3cc(Nc4cccc5c4N(C(C)=O)CC5)ccn3)cc2)CC1` [Compound 1938] yielded an inhibition at 1 µM ([1]; read-out: % Inhibition Point 1) of 12%, an inhibition at 1 µM ([1]; read-out: % Inhibition Point 2) of 14% and an inhibition at 1 µM ([1]; read-out: % Inhibition mean) of 13%. The inhibition at 1 µM ([2]; read-out: % Inhibition Point 1) was -1%, the inhibition at 1 µM ([2]; read-out: % Inhibition Point 2) was 0.422% and the inhibition at 1 µM ([2]; read-out: % Inhibition mean) was -0.267%. It also gave an inhibition at 1 µM ([3]; read-out: % Inhibition Point 1) of 4%, an inhibition at 1 µM ([3]; read-out: % Inhibition Point 2) of 7.54% and an inhibition at 1 µM ([3]; read-out: % Inhibition mean) of 6%. For the same molecule, the inhibition at 1 µM ([4]; read-out: % Inhibition Point 1) was 8%, the inhibition at 1 µM ([4]; read-out: % Inhibition Point 2) was 7% and the inhibition at 1 µM ([4]; read-out: % Inhibition mean) was 8%. The inhibition at 1 µM ([5]; read-out: % Inhibition Point 1) was -0.0213%, the inhibition at 1 µM ([5]; read-out: % Inhibition Point 2) was 0.399% and the inhibition at 1 µM ([5]; read-out: % Inhibition mean) was 0.189%. The inhibition at 1 µM ([6]; read-out: % Inhibition Point 1) was 6.6%, the inhibition at 1 µM ([6]; read-out: % Inhibition Point 2) was 9% and the inhibition at 1 µM ([6]; read-out: % Inhibition mean) was 8%. It also gave an inhibition at 1 µM ([7]; read-out: % Inhibition Point 1) of 13%, an inhibition at 1 µM ([7]; read-out: % Inhibition Point 2) of 16% and an inhibition at 1 µM ([7]; read-out: % Inhibition mean) of 14%.
